Results taken from PMC8998031, “A Boronated Derivative of Temozolomide Showing Enhanced Efficacy in Boron Neutron Capture Therapy of Glioblastoma” (Cells, 2022).

Assays:
HS683 cells [1] = assay: CCK8 cell proliferation assay; format: cell-based, Human; conditions: read-out: IC50 (cell viability, CCK8)
Experimental: Cell proliferation was measured with a CCK8 assay following the manufacturer’s protocol (Dojindo Molecular Technologies, Inc., Kumamoto, Japan). The IC50 was calculated using Prism software using the following algorithm: Cell Viability=100/1+10^(LogIC50−Concentration)×Hillslope

HS683 cells [2] = assay: Clonogenic cell survival assay without BNCT; format: cell-based, Human
HS683 cells [3] = assay: Clonogenic cell survival assay with BNCT (neutron irradiation); format: cell-based, Human; conditions: total neutron fluence 2.4 ± 0.3 × 10^11 n/cm^2
Experimental: HS683 cells were prepared in a 200 μL centrifuge tube and treated with BPA or TMZB at gradient concentrations in 0.0–1.0 μg/mL for 30 min. Cells were irradiated with epithermal neutrons for approximately 30 min to achieve total neutron fluence at 2.4 ± 0.3 × 10^11 n/cm^2. After radiation, the drug-containing medium was removed, and cells were incubated in fresh medium for 12 h. A certain number of cells in a single-cell suspension were seeded into 6-well plates to grow colonies. After 2 weeks of incubation, colonies were fixed with 70% ethanol at room temperature for 10 min, stained with 0.1% crystal violet, and then dried overnight. Colonies with more than 50 cells were scored as clonogenic survivors under a bright field microscope.

HS683 GBM mouse model = assay: In vivo BNCT test, PET/CT imaging with 18F-FDG; parameters: species or system nude mice
Experimental: (§1) Single-cell suspension with HS683 cells was prepared at 2 × 10^7 cells/mL. Nude mice were anesthetized with an intraperitoneal injection of tribromoethanol at a dose of 150 mg/kg and positioned in a stereotaxic instrument. After disinfection with 75% alcohol, the scalp was cut open with a scalpel, the bregma point was selected, and a hole was made in the mouse skull using a 1 mm cranial drill. Then, 5 μL of cell suspension was taken using a micro-injector, which was then fixed on the brain with a needle depth at 3.0 mm using a stereotaxic instrument. Three minutes later, the micro-injector was lifted by 0.5 mm to make rooms for the injection of cells at 1 μL/min. After removing the needle, the drill hole in the mice skull was then filled with bone wax, the skin incision was sutured, and the wound was disinfected with iodophor. The GBM model was established approximately 28 days after cell injection.
PET/CT imaging with 1.5 uCi/g ^18F-FDG was performed for all the mice anesthetized with 2% isoflurane at 25 °C before BNCT. Mice were anesthetized with an intraperitoneal injection of tribromoethanol at a dose of 150 mg/kg. The mice were then injected i.v. with 50 mg ^10B/kg of BPA (5% fructose solution) or the TMZB solution at 50 mg ^10B/kg or TMZ at 600 mg/kg through the tail vein. Then, 90 min later, mice were fixed in the mold and anesthetized for BNCT. Mice heads were treated with 2 kw of neutron fluence for 2 h each time and 4 times for each mouse with 2 days interval in between, to achieve a total neutron fluence of 16.5 ± 0.3 × 10^11 n/cm^2. Boron compounds were injected prior to each of the radiation fractions. PET/CT imaging was performed again 31 days after BNCT. Three-dimensional reconstructions of the PET/CT images were performed using AMIDE (Stanford University, Stanford, CA, USA). ROI, SUV values, and tumor volume were then analyzed.

U251 cells = assay: Boron uptake in U251 cells (ICP-AES); format: cell-based, Human; conditions: exposure of 1.99 mM BPA, 12 h
Experimental: (§2) Human GBM cells U87MG, U251, and HS683 and endothelial cell HUV-EC were obtained from the National Infrastructure of Cell Line Resource in Beijing, China. Cell lines were authenticated at the National Infrastructure of Cell Line Resource, Beijing, China. GBM cells were cultured in a DMEM medium containing 10% fetal bovine serum and 1% penicillin/streptomycin at 5% CO2 and 37 °C. HUV-EC cells were cultured in complete culture medium (Procell Life Science & Technology Co., Ltd., Wuhan, China). Cells were tested mycoplasma free using a Mycoplasma Test Kit (Cellorlab, China). All materials for cell culture were purchased from Gibco Invitrogen (Grand Island, NY, USA) unless otherwise noted.
(§3) TMZB (molecular weight, 412.21) and BPA (209.01; obtained from HEC Pharm, Dongguan, China) were made into 0.0–1.0 mg/g aqueous solutions. GBM cells and HUV-EC cells were treated with different concentrations of TMZB or BPA solutions. The drug-containing medium was removed 12 h later. The biodistribution of boron in TMZB- or BPA-treated mice was measured at the timepoint for neutron irradiation, i.e., 2 h after drug injection. Eight nude mice in each group were injected with 500 mg/kg of BPA, TMZ, or TMZB through the tail vein of the nude mice, in a 3,5-tetrazine-8-methoxy-4-phenylboronic acid-ethyl ester solution. […]

[4] = In vivo boron distribution in GBM mouse model (ICP-AES); parameters: species or system nude mice; conditions: 50 mg 10B/kg
Experimental: as §1
TMZB (molecular weight, 412.21) and BPA (209.01; obtained from HEC Pharm, Dongguan, China) were made into 0.0–1.0 mg/g aqueous solutions. GBM cells and HUV-EC cells were treated with different concentrations of TMZB or BPA solutions. The drug-containing medium was removed 12 h later. […] Eight nude mice in each group were injected with 500 mg/kg of BPA, TMZ, or TMZB through the tail vein of the nude mice, in a 3,5-tetrazine-8-methoxy-4-phenylboronic acid-ethyl ester solution. […] Cells or tissues were digested with concentrated nitric acid for the analysis of boron concentration via ICP-AES.

HS683 cells [5] = assay: Boron uptake in HS683 cells (ICP-AES); format: cell-based, Human; conditions: series of concentrations, 12 h
Experimental: as §2, §3

N[C@@H](Cc1ccc(B(O)O)cc1)C(=O)O [BPA, boronated phenylalanine]
IC50 (HS683 cells [1]; without BNCT): 1110 µM | IC50 (HS683 cells [2]): 2310 µM

Cn1nnc2c(C(N)=O)ncn2c1=O [TMZ, temozolomide]
clonogenic cell death after BNCT (HS683 cells [3]; HS683, 0.258 mM TMZ): 47.9% ± 6.6 | IC50 (HS683 cells [1]; Homo sapiens, Hs 683, without BNCT): 284 µM | IC50 (HS683 cells [2]; Homo sapiens, Hs 683): 213 µM

N[C@@H](Cc1ccc([10B](O)O)cc1)C(=O)O [BPA, boronated phenylalanine]
clonogenic cell death after BNCT (HS683 cells [3]; HS683, 0.239 mM BPA): 63.7% ± 6.3 | SUV max after BNCT (HS683 GBM mouse model; 31 days after BNCT, 50 mg 10B/kg, 18F-FDG PET/CT): significantly reduced | 18F-FDG uptake in tumors after BNCT (HS683 GBM mouse model; 31 days after BNCT, compared with TMZ-treated group): significantly lower than that in the TMZ-treated group | tumor volume decrease (tumor shrinkage) after BNCT (HS683 GBM mouse model; 31 days after neutron irradiation, 50 mg 10B/kg i.v., total neutron fluence 16.5 ± 0.3 × 10^11 n/cm^2, PET/CT): 35.2% | boron uptake (U251 cells): 0.126 μg/10^6 cells | tissue of main boron accumulation ([4]; 2 h after administration): mainly accumulates in the kidney | boron concentration in mice tumors ([4]; 2 h after i.v. administration): 16.93 ± 9.75 μg B/g | boron concentration in mice tumors ([4]; 6 h after i.v. administration): 5.07 ± 1.43 μg B/g | tumor-to-blood ratio (T/B) of boron concentrations ([4]; GBM mouse model): 2.26 ± 1.56 | tumor-to-normal brain ratio (T/N) of boron concentrations ([4]; GBM mouse model): 2.61 ± 1.98 | boron uptake (in words) (HS683 cells [5]): low uptake
